In publication PMC8592510 (CPT: Pharmacometrics & Systems Pharmacology, 2021):

What was measured:
[1] = assay type: in vivo, human; conditions: covariate analysis, allometric scaling principles
[2] = Bayesian feedback population PK analyses of phase III data; assay type: in vivo; conditions: human, plasma, oral
[3] = cited from earlier work
CYP3A = conditions: cited from earlier work
[4] = cited from earlier work; remark: listed apart in the source
[5] = cited from earlier work; remark: listed apart in the source
[6] = Logistic regression exposure-safety analyses; conditions: alectinib 300 or 600 mg b.i.d.

| SMILES | Body weight effect on clearance and volume [1] | half-life [2] | Blood-brain barrier penetration [3] | Enzyme involved in metabolism (CYP3A) | First-pass metabolism by cytochrome P450 (CYP) 3A (CYP3A) | Lipophilicity [4] | Safety profile compared with crizotinib ([5]; J-ALEX, ALEX and ALESIA) | Effect of Caverage on severity of the first event for SAEs or Grade ≥3 AEs [6] | Relationship between Caverage and first occurrence of Grade ≥3 AEs ([6]; J-ALEX, ALEX, ALESIA) | Relationship between combined alectinib and M4 molar concentration (Caverage) and first occurrence of SAEs ([6]; J-ALEX, ALEX, ALESIA) | Frequency of Grade ≥3 AEs and SAEs, crizotinib versus alectinib ([5]; ALEX study) |
| --- | --- | --- | --- | --- | --- | --- | --- | --- | --- | --- | --- |
| CCc1cc2c(cc1N1CCC(N3CCOCC3)CC1)C(C)(C)c1[nH]c3cc(C#N)ccc3c1C2=O [alectinib] | significant body weight effect | 34 h | can penetrate the blood–brain barrier | CYP3A is the main enzyme | limited | lipophilic | favorable safety profile compared with crizotinib | no apparent effect | no significant relationship | no significant relationship |  |
| C[C@@H](Oc1cc(-c2cnn(C3CCNCC3)c2)cnc1N)c1c(Cl)ccc(F)c1Cl [crizotinib] |  |  |  |  |  |  |  |  |  |  | more frequent |
